This note sets out measurements from PMC10035370, “Targeting Tumor Angiogenesis with the Selective VEGFR-3 Inhibitor EVT801 in Combination with Cancer Immunotherapy” (Cancer Research Communications, 2022).

One series has as its system NCI-H1703 cells. Briefly: NCI-H1703 viability (ATP reduction). The series is classed as cell-based. The settings on record: Homo sapiens, in vitro. The protocol:
NCI-H1703 were seeded in 96-well plates coated with 0.3 % gelatin (5 x 10^3 cells per well) and were incubated in RPMI 0.1 % FCS with VEGF-C (300 ng/mL) or VEGF-D (300 ng/mL) in the absence or presence of increasing doses of EVT801. After 5 days, viable cells were quantified with the cell Titer-glo luminescent cell viability assay (Promega) as previously described (1).

Series [1] concerns NCI-H1703 tumor xenografts. The series can be described thus: NCI-H1703 subcutaneous xenograft tumor mouse model. The settings on record: 30 mg/kg twice per day. The series is classed as in vivo, mice. The protocol: A total number of 40 homozygous NOD.CB17 Prkdc^scid/NCrHsd mice were used for the xenograft tumor model. On the day of implantation, NCI-H1703 cells were harvested and suspended at a concentration of 1 × 10^8 cells per mL in an equal mix of Cultrex:RPMI without supplements. A volume of 100 μL was injected into the right hind flank of each animal. Tumor volumes were monitored until mean tumor volume reached 150 mm^3. Then, mice were stratified into four treatment groups of each 10 mice and orally dosed twice per day with either EVT801 30 mg/kg and EVT801 vehicle [Soluplus (BASF)/water/hydroxypropylcellulose SL (Nisso America)], or 30 mk/kg pazopanib and pazopanib vehicle (0.5% Hydroxypropyl methylcellulose trimellitate (HPMCT) + 0.1% Tween-80). A period of 8 hours was observed between the first and second daily dose.

The next series has as its system RT-HAM-001 tumors. Briefly: RT-001-HAM subcutaneous patient-derived xenograft tumor mouse model. Type of series: in vivo, mice. The settings on record: 30 mg/kg twice per day, 7-day treatment. As for the experimental part:
Patient-derived tumors of the same passage were transplanted subcutaneously outbred athymic (nu/nu) female HSD mice. When tumor volume reached 726 to 1,437 mm^3, 4 donor mice were sacrificed by cervical dislocation, and tumors were aseptically excised and dissected. After removing necrotic areas, tumor fragments of approximately 20 mm^3 were transferred to culture medium before grafting. A total of 108 mice were anesthetized with 100 mg/kg ketamine hydrochloride (Virbac) and 10 mg/kg xylazine (Bayer). Then, a tumor fragment was placed in the subcutaneous tissue of an incision at the level of the interscapular region as described previously ([30]). All mice from the same experiment were implanted on the same day. A total of 54 mice with RT-001-HAM established growing tumor (P6.0.0/0) between 62.5 and 196 mm^3 were allocated according to tumor volume, ensuring homogenous median and mean tumor volume in each treatment arm. Treatments with 5 mL/kg vehicle, 30 mg/kg EVT801, or 30 mg/kg pazopanib started 15 days after tumor implantation and continued twice per day until termination 7 days later. Tumor volumes were measured via a caliper three times a week during the treatment period. All animals were weighed at the same time as tumor size measurement. Plasma and fresh tumor samples were collected at different timepoints after final dose at day 7 from all mice.
Background: A xenograft is tissue or cells of one species grown in another, often human tumour cells in immunodeficient mice.

In the next series the test system is DEN-induced liver tumor. Briefly: N-diethylnitrosamine-induced hepatocarcinoma mouse model. The series is classed as in vivo, mice. The conditions noted are these: 30 mg/kg daily for 2 months. As for the experimental part: After weighing, 38 male C3/H mice received a 10 mg/kg dose of N-diethylnitrosamine (DEN) intraperitoneally, whereas a group of 5 animals was kept without DEN injection as control group. After 12 months, mice that received DEN injection were randomized by weight in two groups of each 19 animals. The mice were dosed daily orally for 2 months either with EVT801 or vehicle. On the day of termination, mice treated with EVT801 received a last dose of 30 mg/kg to take blood and tumor samples for compound concentration determination. After incision of the peritoneal cavity, blood was taken from the vena cava. Following excision and weighing of the liver, the number of tumors per liver was counted. The tumor burden was calculated as the sum of individual tumor volumes for each mouse. No blood sampling was performed on control and vehicle groups. Plasma and tumor samples were stored at −20°C until analysis. Concentration of EVT801 was determined by LC/MS-MS.

The nature of series [2]: Blood pressure in telemetered rat model of hypertension. Type of series: in vivo. The settings on record: single oral administration of 10, 30 or 100 mg/kg. The protocol:
Supplementary Figure 8. EVT801 and sorafenib show opposing effects on blood pressure in rats. (A) Monitoring of the blood pressure over 24 h after single oral administration of 100 mg/kg EVT801 or 500 mg/kg of EVT801, compared to animals treated with vehicle. (B) Monitoring of the blood pressure over 24 h after single oral administration of 10 mg/kg sorafenib, 30 mg/kg sorafenib or 100 mg/kg of sorafenib, compared to animals treated with vehicle.

For a further series, the system named is hLMVEC. The series can be described thus: Growth factor-induced hLMVEC proliferation. The series is classed as cell-based, human. The conditions noted are these: stimulation by the ligand. The protocol: hLMVEC were seeded in white cell culture-treated flat and clear bottom multi-well plates and incubated at 37 °C overnight, before compounds were added. After incubation for 72 h at 37 °C, plates were equilibrated to ambient temperature for 1 h, and CellTiterGlo reagent (Promega) was added. After approximately 1h, luminescence was measured using a luminometer. Curves were fitted via sigmoidal dose response curves, and IC50 values were determined.

What is called IC50 is the concentration at which inhibition is half-maximal. A higher IC50 goes with lower potency. In the case of `Cc1ccc(Nc2nccc(N(C)c3ccc4c(C)n(C)nc4c3)n2)cc1S(N)(=O)=O` [pazopanib, reference compound], inhibition with NCI-H1703 cells was half-maximal at 90 nM (IC50). Further, in series [1], the “CD31 IHC, tumor vessels” value is reported as “decreased the number of vessels while increasing the proportion of larger ones”. Moreover, in series [1] (endpoint), the “decrease of tumor weight compared with vehicle” value was 56%. Further, in series [1] (oral, vs corresponding vehicle), the “T/C ratio, tumor growth” value was 53%. For the same molecule, in the series with RT-HAM-001 tumors, the “T/C ratio, tumor volume” value came out at 77% and the “size of necrotic areas in tumors” value is reported as “remained unaffected”. Moreover, the “hypoxic areas (CAIX) in tumors” value in the series with RT-HAM-001 tumors (not statistically significant) is recorded as “showed opposing effects”.
As for `CNC(=O)c1cc(Oc2ccc(NC(=O)Nc3ccc(Cl)c(C(F)(F)F)c3)cc2)ccn1` [sorafenib, reference compound], in the series with DEN-induced liver tumor, the “T/C ratio, tumor growth” value was 32% and the liver weight result was “reduced liver weight”. The “effect on blood pressure” value in series [2] is reported as “showed the opposite effect”.

B1: VEGF-C: VEGFR-3 ligand (protein, UniProt P49767 112-227, looked up)
Vascular endothelial growth …: AHYNTEILKSIDNEWRKTQCMPREVCIDVGKEFGVATNTFFKPPCVSVYRCGGCCNSEGLQCMNTSTSYLSKTLFEITVPLSQGPKPVTISFANHTSCRCMSKLDVYRQVHSIIRR
For B1, the “increase in hLMVEC proliferation” value in the series on hLMVEC was 50%.

B2: VEGF-D: VEGFR-3 ligand (protein, UniProt O43915 89-205, looked up)
Vascular endothelial growth …: FAATFYDIETLKVIDEEWQRTQCSPRETCVEVASELGKSTNTFFKPPCVNVFRCGGCCNEESLICMNTSTSYISKQLFEISVPLTSVPELVPVKVANHTGCKCLPTAPRHPYSIIRR
Regarding B2, the “increase in hLMVEC proliferation” value in the series on hLMVEC is on record as 34%.
